Experimental data: patent US20150353495A1 (PORTOLA PHARMACEUTICALS, INC., priority 2010, published 2015)
pIC50: −log10 of the molar value.

What was measured:
Type in all cases: biochemical
JAK1 = molecular target: T1, JAK1 (Homo sapiens, UniProt P23458); assay: Z'-LYTE kinase assay JAK1
T1 construct: 5 μl of catalytic domain recombinant Kinase enzyme+Tyr peptide substrate (Invitrogen, CA); purchased Invitrogen
In short: (§1)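 Read-out is FRET fluorescence between coumarin and fluorescein on a Tyr6 peptide, lost when the development protease cleaves unphosphorylated substrate. Kinase reaction used recombinant catalytic domain with ATP, 1 h at room temperature, 1% DMSO.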

[1] = molecular target: T2, full length active recombinant SYK enzyme (Homo sapiens, UniProt P43405); assay: Inhibition of Syk tyrosine phosphorylation activity (LANCE TR-FRET)
T2 construct: full length active recombinant SYK enzyme (Millipore, Calif.); purchased Millipore
Excerpt: This example illustrates methods for evaluating the compounds of the invention, along with results obtained for such assays. The in vitro and in vivo human Syk activities of the inventive compounds can be determined by various procedures known in the art, such as a test for their ability to inhibit the activity of human plasma Syk. […] The IC50 value is the concentration (in nM) of the compound required to provide 50% inhibition of human Syk proteolytic activity.
An in vitro assay for detecting and measuring inhibition activity against Syk is as follows:
Inhibition of Syk Tyrosine Phosphorylation Activity
Potency of candidate molecules for inhibiting Syk tyrosine phosphorylation activity is assessed by measuring the ability of a test compound to inhibit Syk-mediated tyrosine phosphorylation of a Syk-specific substrate.
SYK tyrosine phosphorylation activity is measured using the LANCE™ Technology developed by Perkin Elmer Life and Analytical Sciences (Boston, Mass.). LANCE™ refers to homogeneous time resolved fluorometry applications using techniques such as time-resolved fluorescence resonance energy transfer assay (TR-FRET) (see generally for procedures in Perkin Elmer Application Note-How to Optimize a Tyrosine Kinase Assay Using Time Resolved Fluorescence-Based LANCE Detection, wwww.perkinelmer.com/lifesciences). The assay principle involves detection of a phosphorylated substrate using energy transfer from a phosphospecific europium-labeled antibody to streptavidin-allophycocyanin as an acceptor.
To test the ability of candidate molecules to inhibit SYK tyrosine phosphorylation activity, molecules are reconstituted in 30% DMSO and serially diluted 1:3 with the final dilution containing DMSO in the absence of the candidate molecule. The final DMSO concentration in the assay is 3%. Kinase assays are performed as a two part reaction. The first reaction is a kinase reaction and which comprises of a candidate molecule, full length active recombinant SYK enzyme (Millipore, Calif.) and biotin-labeled SYK-specific substrate biotin-[…]-OH. The second reaction involves termination of the kinase reaction and the simultaneous addition of the detection reagents-europium-labeled anti-phosphotyrosine reagent (Eu-W1024-PY100, Perkin Elmer, Boston, Mass.) and Streptavidin-Allophycocyanin detection reagent (SA-APC, Prozyme, CA). The kinase reaction is performed in a black U-bottom 96-well microtitre plate. The final reaction volume is 50 μL and contains a final concentration of 1 nM active SYK enzyme, 550 nM SYK-substrate, and 100 nM ATP diluted in a buffer containing 50 mM Tris pH 7.5, 5 mM MgCl2, and 1 mM DTT. The reaction is allowed to proceed for 1 hour at room temperature. The quench buffer contains 100 mM Tris pH 7.5, 300 mM NaCl2, 20 mM EDTA, 0.02% Brij35, and 0.5% BSA. The detection reagents are added to the reaction mixture at the following dilutions-1:500 for Eu-W1024-PY100 and 1:250 for SA-APC. The kinase reaction is terminated by the addition of 50 μL quench buffer containing the detection reagents. […] Detection of the phosphorlated substrate in the absence and presence of inhibitors is measured in the TR-FRET instrument, Analyst HT (Molecular Probes, Sunnyvale, Calif.) and the condition for measurements are set up using CriterionHost Release 2.0 (Molecular Probes, Sunnyvale, Calif.). […] Inhibition of SYK-tyrosine kinase activity is calculated as the maximum response observed in the presence of inhibitor, compared to that in the absence of inhibitor. […]

JAK2 = molecular target: T3, JAK2 (Homo sapiens, UniProt O60674); assay: Z'-LYTE kinase assay JAK2
T3 construct: 5 μl of catalytic domain recombinant Kinase enzyme+Tyr peptide substrate (Invitrogen, CA); purchased Invitrogen
T3 sequence (O60674 849-1124 limits assumed): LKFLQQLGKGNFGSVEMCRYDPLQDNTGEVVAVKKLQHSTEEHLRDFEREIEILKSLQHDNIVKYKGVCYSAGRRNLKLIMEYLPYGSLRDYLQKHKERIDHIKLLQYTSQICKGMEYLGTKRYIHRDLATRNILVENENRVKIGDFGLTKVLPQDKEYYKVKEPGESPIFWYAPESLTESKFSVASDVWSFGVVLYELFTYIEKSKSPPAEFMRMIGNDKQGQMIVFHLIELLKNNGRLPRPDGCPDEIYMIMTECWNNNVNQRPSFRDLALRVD
In short: as §1

T1 sequence (P23458 875-1153 limits assumed): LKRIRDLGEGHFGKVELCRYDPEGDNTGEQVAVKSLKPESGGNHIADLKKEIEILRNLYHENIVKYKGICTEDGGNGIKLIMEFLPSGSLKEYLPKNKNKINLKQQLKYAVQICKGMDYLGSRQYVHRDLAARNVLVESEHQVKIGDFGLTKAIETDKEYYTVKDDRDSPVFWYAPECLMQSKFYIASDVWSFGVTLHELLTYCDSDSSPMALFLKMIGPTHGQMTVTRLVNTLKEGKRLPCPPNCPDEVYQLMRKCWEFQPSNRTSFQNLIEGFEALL

Structure (SMILES)	pIC50 (JAK1)	pIC50 [1]	pIC50 (JAK2)
CC(=O)N1CCN(c2ccc(Nc3cc(NC4CC4)c(C(N)=O)cn3)cc2)CC1 [Example 2]	6.00 to 7.00	< 6.00	6.00 to 7.00
CC(=O)N1CCN(c2ccc(Nc3cc(NCc4cccc(F)c4)c(C(N)=O)cn3)cc2)CC1 [Example 229]	6.00 to 7.00	< 6.00	7.00 to 8.00
